# Experimental data reported in PMC12367838, “Relevance of kinetic interactions and co-formulants for plant protection product liver toxicity in vitro” (Archives of Toxicology, 2025).
# Assays:
# HepaRG cells [1] = test: Neutral red uptake (NRU) cytotoxicity assay; type: cell-based, human; conditions: 72 h, tested concentration range
# Method: (§1) Wild-type human hepatoma HepaRG cells obtained from Biopredic International (Saint Grégoire, France) were cultivated for 4 weeks in a Binder cell culture incubator maintained at 37 °C in a 5% humidified atmosphere with 5% CO2 before they were employed in this study. The 4 weeks consisted of 2 weeks of proliferation and 2 weeks of differentiation. […]
# (§2) Cytotoxicity assays were performed in 96-well plates at a density of 9000 cells per well, and test compounds were incubated for 72 h. […] After the 30-min incubation with WST-1, absorbance was measured at 450 nm corrected by a reference at 620 nm (λexc = 450 nm/λemi = 620 nm) using an Infinite M200 PRO plate reader (Tecan; Männedorf, Switzerland). […] The absorbed dye was quantified by fluorescence measurement (λexc = 530 nm/λemi = 645 nm) on an Infinite M200 PRO plate reader (Tecan; Männedorf, Switzerland). Background corrected viability values of both assays were expressed as a percentage of untreated cells. […] Means and standard deviations for each treatment were calculated. […]
# HepaRG cells [2] = test: WST-1 cytotoxicity assay; type: cell-based, human; conditions: WST-1 assay, 72 h incubation
# Method: as §1, §2
# CYP2C19 = target: T1, CYP2C19 (Homo sapiens, UniProt P33261); test: P450-Glo screening system, CYP inhibition; type: biochemical; conditions: recombinant human CYP, luciferin-H EGE
# T1 construct: purchased Promega
# Source text: (§3) The P450-Glo™ screening systems (Promega; Madison, Wisconsin, USA) were used in this study to explore the inhibitory properties of MDP on the major CYP isoforms involved in xenobiotic metabolism (CYP1A2, CYP2C9, CYP2C19, CYP2D6, and CYP3A4). HepaRG cells were not utilized in this assay to avoid potential cross reactivity since all CYP enzymes are expressed in this cell line. Therefore, this inhibition study relied on recombinant human CYP enzymes integrated in membrane preparation. The principle of the assay is based on the conversion of a luminogenic substrate (100 µM luciferin-ME for CYP1A2, 100 µM luciferin-H for CYP2C9, 50 µM luciferin-H EGE for CYP2C19, 30 µM luciferin-ME EGE for CYP2D6, and 100 µM luciferin-PPXE for CYP3A4) to luciferin by the respective enzyme. The assay was conducted according to the instructions of the supplier. Briefly, eight non-cytotoxic concentrations of MDP or a CYP selective inhibitor were preincubated for 10 min at 37 °C together with the luminogenic substrate, potassium phosphate buffer, and luciferin-free water, and the test compounds were added to white 96-well Costar® plates. After the preincubation, 25 µL of NADPH regeneration system (2.6 mM NADP + , 6.6 mM glucose-6-phosphate, 6.6 mM MgCl2, and 0.8 U/mL glucose-6-phosphate dehydrogenase) was added to each well to initiate CYP reactions. The plates were briefly shaken and taped before they were incubated at 37 °C for 10–30 min depending on the CYP enzyme under investigation. Luminescence of the luciferin product was initiated by adding 50 µL of the luciferin detection reagent. Subsequently, the plates were briefly shaken and then incubated for 20 min at room temperature in order to stabilize the luminescent signal. The luminescence was measured on the Infinite M200 PRO plate reader (Tecan; Männedorf, Switzerland). The measurements were corrected by subtracting the minus P450 control signals from each measurement and represented as changes in luminescence signals (ΔRLU). The ΔRLU values of MDP were compared with the ΔRLU values of the untreated samples and represented as relative changes in luminescence in relation to the control (%). Three independent experiments with three technical replicates were conducted (n = 3). Means and standard deviations for each treatment were calculated before calculating the IC50 values of MDP for each CYP enzyme.
# (§4) A linear mixed-effects ANOVA (α = 0.05) described by Pinheiro and Bates ([2000]) followed by a post-hoc Dunnett test for multiple comparisons of treatment groups versus the control was used for statistical analysis of data from cytotoxicity assay, AdipoRed assay, CYP450 inhibition assay as well as mixture effects. R studio (ver. 4.4.1) was used to determine the effective concentration at relative triglyceride induction fold of 1.5 for each test compound.
# CYP1A2 = target: T2, CYP1A2 (Homo sapiens, UniProt P05177); test: P450-Glo screening system, CYP inhibition; type: biochemical; conditions: recombinant human CYP, luciferin-ME
# T2 construct: purchased Promega
# T2 sequence (P05177 1-516): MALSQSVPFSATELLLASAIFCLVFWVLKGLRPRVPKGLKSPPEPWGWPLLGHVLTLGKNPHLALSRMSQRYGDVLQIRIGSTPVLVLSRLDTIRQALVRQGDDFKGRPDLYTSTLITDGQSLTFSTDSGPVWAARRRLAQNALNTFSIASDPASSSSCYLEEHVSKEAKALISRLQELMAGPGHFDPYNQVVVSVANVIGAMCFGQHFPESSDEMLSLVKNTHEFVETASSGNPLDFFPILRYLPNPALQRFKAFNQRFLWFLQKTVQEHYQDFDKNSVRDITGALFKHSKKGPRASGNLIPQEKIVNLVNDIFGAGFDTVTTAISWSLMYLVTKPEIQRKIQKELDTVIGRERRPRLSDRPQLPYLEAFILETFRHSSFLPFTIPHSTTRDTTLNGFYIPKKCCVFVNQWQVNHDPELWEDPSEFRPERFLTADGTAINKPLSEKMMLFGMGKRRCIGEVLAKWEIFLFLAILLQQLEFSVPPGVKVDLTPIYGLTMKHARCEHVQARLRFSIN
# Source text: as §3, §4
# T1 sequence (P33261 whole entry): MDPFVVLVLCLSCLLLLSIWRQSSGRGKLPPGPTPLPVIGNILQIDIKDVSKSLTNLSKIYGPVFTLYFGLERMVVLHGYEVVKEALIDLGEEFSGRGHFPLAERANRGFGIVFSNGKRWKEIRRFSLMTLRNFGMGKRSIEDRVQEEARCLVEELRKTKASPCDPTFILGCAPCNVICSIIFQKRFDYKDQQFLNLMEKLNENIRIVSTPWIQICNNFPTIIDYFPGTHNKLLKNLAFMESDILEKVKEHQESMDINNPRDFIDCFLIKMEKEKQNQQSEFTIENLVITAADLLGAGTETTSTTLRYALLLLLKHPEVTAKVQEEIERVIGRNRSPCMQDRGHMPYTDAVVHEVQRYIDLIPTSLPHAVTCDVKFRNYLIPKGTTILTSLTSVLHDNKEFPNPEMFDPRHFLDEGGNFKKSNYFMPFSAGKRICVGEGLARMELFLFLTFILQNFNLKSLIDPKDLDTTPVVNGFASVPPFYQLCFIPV
smiles,measurement,setting,value
"C#CCOc1ccc(CCNC(=O)C(OCC#C)c2ccc(Cl)cc2)cc1OC (stereo not drawn) [MDP, mandipropamid]",cytotoxicity,HepaRG cells [1],not cytotoxic in the tested concentration range
same,EC50 for cytotoxicity,HepaRG cells [2],245 µg/mL
same,IC50,CYP2C19,0.824 µM
same,IC50 CYP2C19,CYP2C19,0.340 µg/mL
same,IC50,CYP1A2,28.7 µM
same,IC50 CYP1A2,CYP1A2,11.8 µg/mL
